Data reported in US20230322815A1, “NOVEL COMPOUNDS AND THERAPEUTIC USES THEREOF” (University of Huddersfield, priority 2020, published 2023).

Key:
chick embryo = assay: Embryonic toxicity, H460 in ovo study; format: in vivo, chick (White Leghorn); details: for embryo tolerability: all doses tested, no statistically significant difference to solvent control; for % Alive / % Dead / Alive (embryos at E18) / Dead (embryos at E18): H460 study
Method: 10^6 tumor cells (H460, HT29 or HCT116) were grafted onto the upper chorioallantoic membrane (CAM) of the developing chick embryo on embryonic day 9 (E9). Access to the upper CAM was through a small hole drilled through the eggshell of fertilized White Leghorn eggs (into the air sac) on E9 (15 eggs per experimental group).
100 μl of freshly prepared experimental compound, vehicle control or standard-of-care (SoC) drug at their working concentrations were pipetted onto the tumor graft at E11, E13, E15 and E17. On day E18, the upper CAM (with tumor) was removed, washed by PBS buffer and then directly transferred in PFA (fixation for 48 hrs). After that, tumors were carefully cut away from normal CAM tissue and weighed.
Embryonic viability was checked daily. The number of dead embryos was also counted on E18, to evaluate treatment-induced embryo toxicity.

[1] = Dephosphorylation of purified phosphorylated AMPK peptide
Method: Unless otherwise stated, all solvents and materials were purchased from either Sigma Aldrich, Fisher Scientific or Fluorochem and were used without further purification. ^1H, ^13C, DEPT-135 and DEPT-90 NMR data was recorded on either a Bruker Fourier 300 MHz or Bruker Avance III (AVIII) 400 MHz spectrometer or a Bruker Avance Neo 600 MHz NMR spectrometer. Mass spectra were obtained on an Agilent 6210 TOF MS with electrospray ionisation operating in positive ion mode and mass spectra of metal complexes were obtained on a Bruker Micro TOF-q LC mass spectrometer with electrospray ionisation operating in positive ion mode. Phosphorylated ‘SAMS’ peptide HMRSAMS*GLHLVKRR (phosphorylated on the serine residue) was obtained from PeptideSynthetics, Peptide Protein Research Ltd (>95% purity).
There are several potential mechanisms which could lead the observed kinase inhibition ‘readout’ of this screen including, i) direct ATP hydrolysis by the complex(es) and differing Km of the kinases for ATP, and, ii) dephosphorylation of the peptide substrate by the phosphatase activity of the Zn^2+ complex resulting in cycles of peptide phosphorylation by active recombinant enzyme and dephosphorylation by the complex.

Src = Src (Homo sapiens, UniProt P12931); assay: Cell-free kinase screen; format: biochemical; details: 10 μM complex
Sequence of Src (P12931 whole entry): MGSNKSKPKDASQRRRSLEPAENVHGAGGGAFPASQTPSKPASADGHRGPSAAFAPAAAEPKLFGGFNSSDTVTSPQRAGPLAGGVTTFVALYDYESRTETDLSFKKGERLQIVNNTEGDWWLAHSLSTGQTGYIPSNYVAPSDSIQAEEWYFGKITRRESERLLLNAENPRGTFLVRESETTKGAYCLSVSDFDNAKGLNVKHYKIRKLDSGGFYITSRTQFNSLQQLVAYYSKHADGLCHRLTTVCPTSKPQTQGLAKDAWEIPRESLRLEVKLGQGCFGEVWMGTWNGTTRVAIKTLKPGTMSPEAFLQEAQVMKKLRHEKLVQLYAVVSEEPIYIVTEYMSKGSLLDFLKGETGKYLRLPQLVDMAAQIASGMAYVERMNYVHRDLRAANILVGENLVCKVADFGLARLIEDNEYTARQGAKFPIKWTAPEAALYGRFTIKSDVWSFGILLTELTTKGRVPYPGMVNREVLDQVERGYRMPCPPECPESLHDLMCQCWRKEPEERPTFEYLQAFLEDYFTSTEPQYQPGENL
Method: FIG. 9. Effects of [L2Zn3]^6+ and [L2Cu3]^6+ on the activity of purified human kinases. a,b, Percentage inhibition of the indicated kinases by [L2Zn3]^6+ (a) and [L2Cu3]^6+ (b) respectively at a concentration of 10 μM; full results are presented in the ESI. c,d, Kinases whose activity is stimulated by [L2Zn3]^6+ (c) or [L2Cu3]^6+ (d) complexes. e,f, Kinome map showing kinases inhibited (red) or stimulated (green) by [L2Zn3]^6+ (e) or [L2Cu3]^6+ (f). III ustration reproduced courtesy of Cell Signalling Technology Inc (www.cellsignal.com)
FIG. 16. The effect of [L2Zn3]^6+ and [L2Cu3]^6+ on the activity of recombinant human kinases. The compounds were submitted to the MRC Protein Phosphorylation and Ubiquitination Unit International Centre for Kinase Profiling (University of Dundee) and tested at a concentration of 10 μM against 140 human kinases (Premier Screen).
Given the ability of the Zn^2+ complex to dephosphorylate amino acids serine, tyrosine and threonine (FIG. 6) and the Cu^2+ complex to bind phenyl phosphate (FIG. 3), it was examined whether the complexes affect the activity of kinases. This was assessed in a cell-free screen of 140 kinases using purified recombinant human kinases and substrate peptides incubated in the presence of ^33P ATP and 10 μM complex or solvent control. […]

[2] = dose [1]: L2Zn3 54 μM, L2Cu3 42 μM
[3] = dose [2]: L2Zn3 108 μM, L2Cu3 84 μM
[4] = dose [3]: L2Zn3 216 μM, L2Cu3 168 μM

Row | Compound | embryo tolerability (chick embryo) | % Alive (chick embryo; [2]) | % Dead (chick embryo; [2]) | Alive (embryos at E18) (chick embryo; [2]) | Dead (embryos at E18) (chick embryo; [2]) | % Alive (chick embryo; [3]) | % Dead (chick embryo; [3]) | Alive (embryos at E18) (chick embryo; [3]) | Dead (embryos at E18) (chick embryo; [3]) | % Alive (chick embryo; [4]) | % Dead (chick embryo; [4]) | Alive (embryos at E18) (chick embryo; [4]) | Dead (embryos at E18) (chick embryo; [4]) | dephosphorylation of phosphorylated AMPK peptide [1] | effect on Src kinase activity in the kinase screen (Src)
1 | [Cu+2].[Cu+2].[Cu+2].c1ccc(-c2csc(NCCN(CCNc3nc(-c4ccccn4)cs3)CCNc3nc(-c4ccccn4)cs3)n2)nc1.c1ccc(-c2csc(NCCN(CCNc3nc(-c4ccccn4)cs3)CCNc3nc(-c4ccccn4)cs3)n2)nc1 [[L2Cu3]^6+] | well tolerated | 85.71% | 14.29% | 12 | 2 | 92.86% | 7.14% | 13 | 1 | 85.71% | 14.29% | 12 | 2 | neither complex resulted in dephosphorylation | activity was increased
2 | [Zn+2].[Zn+2].[Zn+2].c1ccc(-c2csc(NCCN(CCNc3nc(-c4ccccn4)cs3)CCNc3nc(-c4ccccn4)cs3)n2)nc1.c1ccc(-c2csc(NCCN(CCNc3nc(-c4ccccn4)cs3)CCNc3nc(-c4ccccn4)cs3)n2)nc1 [[L2Zn3]^6+] | well tolerated | 92.86% | 7.14% | 13 | 1 | 76.92% | 23.08% | 10 | 3 | 90.91% | 9.09% | 10 | 1 | neither complex resulted in dephosphorylation | activity was increased
